The record followed here is the supplement of paper PMC10307832.

Common to all, as to assay: relative viability (nuclei count vs DMSO), 5 days (fraction); higher = more cells survive
Compound in test [1]: C1=CC=C2C(=C1)N=C(S2)C(C#N)C3=NC(=NC=C3)NCCC4=CN=CC=C4 + Nc1nc2[nH]cc(CCc3ccc(C(=O)N[C@@H](CCC(=O)O)C(=O)O)cc3)c2c(=O)[nH]1 [Pemetrexed] (partner 0.2 µM)
The procedure, abridged:
(§1)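 For relative viability, nuclei counts in treated wells were divided by those in vehicle wells. Lung cancer cell lines had been pin-tool dosed in 1536-well plates the day after seeding and cultured for 5 days, then fixed and stained in one step (final 0.05% Triton X-100, 1% formaldehyde, 1 ug/ml Hoechst) and imaged at 4×. Doses were one drug alone or a fixed anchor-drug dose plus five library-drug doses (not always all listed) in √10 steps, and values are duplicate-plate medians.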

Compound in test [2]: COc1cc2/c(=N/c3ccc(Br)cc3F)nc[nH]c2cc1OCC1CCN(C)CC1 [Vandetanib] + Cc1nc(Nc2ncc(C(=O)Nc3c(C)cccc3Cl)s2)cc(N2CCN(CCO)CC2)n1 [Dasatinib] (partner 0.075 µM)
The procedure, abridged: as §1

Compound in test [3]: C1=CC=C2C(=C1)N=C(S2)C(C#N)C3=NC(=NC=C3)NCCC4=CN=CC=C4 + COc1cccc2cc(-c3nc([C@H]4CC[C@H](C(=O)O)CC4)n4ncnc(N)c34)[nH]c12 [OSI-027] (partner 0.5 µM)
In outline: as §1

Compound in test [4]: C#Cc1cccc(Nc2ncnc3cc(OC)c(OCCCCCCC(=O)NO)cc23)c1 [CUDC-101] + CCNC(=O)c1noc(-c2cc(C(C)C)c(O)cc2O)c1-c1ccc(CN2CCOCC2)cc1 [Luminespib] (partner 0.01 µM)
In outline: as §1

On to PC-3 [JPC-3], for which the relative viability in test [1] (first compound 0.005 µM) was 1.14; in test [1] (first compound 0.05 µM), 1.08; in test [1] (first compound 0.1581 µM), 1.37; in test [1] (first compound 0.5 µM) it was 0.914; in test [2] (first compound 0.02 µM) it was 0.952; in test [2] (first compound 0.06325 µM), 0.865. The relative viability in test [2] (first compound 0.2 µM) was 0.954; in test [2] (first compound 0.6325 µM), 0.497; in test [2] (first compound 2 µM), 0.571; in test [3] (first compound 0.005 µM), 0.717; in test [3] (first compound 0.01581 µM) it was 0.877; in test [3] (first compound 0.05 µM), 0.771. For the same cell line, the relative viability came to 0.888 in test [3] (first compound 0.1581 µM); 0.483 in test [3] (first compound 0.5 µM); 0.739 in test [4] (first compound 0.01 µM); 0.648 in test [4] (first compound 0.03162 µM); 0.64 in test [4] (first compound 0.1 µM); 0.563 in test [4] (first compound 0.3162 µM). The relative viability in test [4] (first compound 1 µM) turned out to be 0.301.
As to PC-14, the relative viability was 0.155 in test [1] (first compound 0.005 µM); 0.133 in test [1] (first compound 0.01581 µM); 0.106 in test [1] (first compound 0.05 µM); 0.136 in test [1] (first compound 0.1581 µM); 0.148 in test [1] (first compound 0.5 µM); 0.246 in test [2] (first compound 0.02 µM). Also, the relative viability was determined as 0.136 in test [2] (first compound 0.06325 µM); 0.0576 in test [2] (first compound 0.2 µM); 0.0422 in test [2] (first compound 0.6325 µM); 0.0429 in test [2] (first compound 2 µM); 0.606 in test [3] (first compound 0.005 µM); 0.923 in test [3] (first compound 0.01581 µM). The relative viability in test [3] (first compound 0.05 µM) is 0.669; in test [3] (first compound 0.1581 µM) it was 1.22; in test [3] (first compound 0.5 µM), 0.729; in test [4] (first compound 0.01 µM) it was 0.133; in test [4] (first compound 0.03162 µM), 0.208; in test [4] (first compound 0.1 µM), 0.16. Further, the relative viability in test [4] (first compound 0.3162 µM) came to 0.115; in test [4] (first compound 1 µM), 0.114.
For the cell line RERF-LC-KJ, the relative viability in test [1] (first compound 0.005 µM) was found to be 0.468; in test [1] (first compound 0.01581 µM) it was 0.505; in test [1] (first compound 0.05 µM) it was 0.465; in test [1] (first compound 0.1581 µM) it was 0.507; in test [1] (first compound 0.5 µM), 0.502; in test [2] (first compound 0.02 µM), 0.767. Further, the relative viability in test [2] (first compound 0.06325 µM) turned out to be 0.868; in test [2] (first compound 0.2 µM), 0.756; in test [2] (first compound 0.6325 µM), 0.758; in test [2] (first compound 2 µM), 0.683; in test [3] (first compound 0.005 µM) it was 0.645; in test [3] (first compound 0.01581 µM), 0.564. The relative viability in test [3] (first compound 0.05 µM) was found to be 0.511; in test [3] (first compound 0.1581 µM), 0.63; in test [3] (first compound 0.5 µM), 0.562; in test [4] (first compound 0.01 µM), 1.36; in test [4] (first compound 0.03162 µM), 1.3; in test [4] (first compound 0.1 µM), 1.25. The relative viability in test [4] (first compound 0.3162 µM) was 1.18; in test [4] (first compound 1 µM) it was 0.794.
Regarding SK-LU-1, the relative viability in test [1] (first compound 0.005 µM) amounted to 0.81; in test [1] (first compound 0.01581 µM), 1.06; in test [1] (first compound 0.05 µM), 0.956; in test [1] (first compound 0.1581 µM), 1.12; in test [1] (first compound 0.5 µM), 0.89; in test [2] (first compound 0.02 µM) it was 0.195. Moreover, the relative viability in test [2] (first compound 0.06325 µM) is 0.151; in test [2] (first compound 0.2 µM) it was 0.184; in test [2] (first compound 0.6325 µM) it was 0.18; in test [2] (first compound 2 µM), 0.173; in test [3] (first compound 0.005 µM), 0.278; in test [3] (first compound 0.01581 µM) it was 0.374. In addition, the relative viability in test [3] (first compound 0.05 µM) came out at 0.349; in test [3] (first compound 0.1581 µM), 0.345; in test [3] (first compound 0.5 µM), 0.297; in test [4] (first compound 0.01 µM), 0.188; in test [4] (first compound 0.03162 µM), 0.203; in test [4] (first compound 0.1 µM) it was 0.213. The relative viability amounted to 0.206 in test [4] (first compound 0.3162 µM) and 0.216 in test [4] (first compound 1 µM).
Consider SK-MES-1, for which the relative viability in test [1] (first compound 0.005 µM) came to 0.799; in test [1] (first compound 0.01581 µM) it was 0.923; in test [1] (first compound 0.05 µM), 0.823; in test [1] (first compound 0.1581 µM), 1.04; in test [1] (first compound 0.5 µM), 0.644; in test [2] (first compound 0.02 µM), 0.358. The relative viability in test [2] (first compound 0.06325 µM) was determined as 0.33; in test [2] (first compound 0.2 µM), 0.347; in test [2] (first compound 0.6325 µM) it was 0.27; in test [2] (first compound 2 µM), 0.286; in test [3] (first compound 0.005 µM), 0.483; in test [3] (first compound 0.01581 µM), 0.659. Moreover, the relative viability is 0.48 in test [3] (first compound 0.05 µM); 0.722 in test [3] (first compound 0.1581 µM); 0.558 in test [3] (first compound 0.5 µM); 0.854 in test [4] (first compound 0.01 µM); 0.72 in test [4] (first compound 0.03162 µM); 0.755 in test [4] (first compound 0.1 µM). Besides, the relative viability in test [4] (first compound 0.3162 µM) is 0.567; in test [4] (first compound 1 µM) it was 0.52.
As to SW 900, the relative viability in test [1] (first compound 0.005 µM) is 0.39; in test [1] (first compound 0.01581 µM), 0.471; in test [1] (first compound 0.05 µM), 0.484; in test [1] (first compound 0.1581 µM), 0.521; in test [1] (first compound 0.5 µM) it was 0.482; in test [2] (first compound 0.02 µM), 0.445. Further, the relative viability amounted to 0.57 in test [2] (first compound 0.06325 µM); 0.537 in test [2] (first compound 0.2 µM); 0.641 in test [2] (first compound 0.6325 µM); 0.409 in test [2] (first compound 2 µM); 0.48 in test [3] (first compound 0.005 µM); 0.448 in test [3] (first compound 0.01581 µM). In addition, the relative viability in test [3] (first compound 0.05 µM) was found to be 0.506; in test [3] (first compound 0.1581 µM), 0.763; in test [3] (first compound 0.5 µM) it was 0.424; in test [4] (first compound 0.01 µM), 0.168; in test [4] (first compound 0.03162 µM), 0.181; in test [4] (first compound 0.1 µM) it was 0.185. Also, the results for the relative viability in test [4] (first compound 0.3162 µM) and in test [4] (first compound 1 µM) were 0.157 and 0.174, respectively.
For the cell line SW 1573, the relative viability in test [1] (first compound 0.005 µM) came to 0.598; in test [1] (first compound 0.01581 µM), 0.782; in test [1] (first compound 0.05 µM) it was 0.702; in test [1] (first compound 0.1581 µM) it was 0.9; in test [1] (first compound 0.5 µM), 0.629; in test [2] (first compound 0.02 µM), 0.449. The relative viability in test [2] (first compound 0.06325 µM) is 0.577; in test [2] (first compound 0.2 µM) it was 0.598; in test [2] (first compound 0.6325 µM), 0.441; in test [2] (first compound 2 µM) it was 0.674; in test [3] (first compound 0.005 µM) it was 0.497; in test [3] (first compound 0.01581 µM), 0.54. Moreover, the relative viability in test [3] (first compound 0.1581 µM) was found to be 0.923; in test [3] (first compound 0.5 µM) it was 0.557; in test [4] (first compound 0.01 µM), 0.238; in test [4] (first compound 0.03162 µM), 0.252; in test [4] (first compound 0.1 µM), 0.516; in test [4] (first compound 0.3162 µM), 0.187. Further, the relative viability in test [4] (first compound 1 µM) is 0.164.
